Measured values as given in publication PMC11892739, “Site-specific molecular glues for the 14-3-3/Tau pS214 protein–protein interaction via reversible covalent imine tethering” (RSC Medicinal Chemistry, 2025).

Tested on: 14-3-3ζ/Tau pS2 peptide interaction
Experiment: Fluorescence anisotropy 14-3-3ζ titration in the presence of 250 μM compound and Tau pS2 peptide
Assay type: binding
Details: 250 μM compound; 100 nM client peptides, 10 nM Tau pS2 peptide
Experimental: On the other hand, the PPI stabilizing potency of series 1 compounds was highly dependent on the position and chemical property of the substituent. […] The compound screen for these compounds was further complemented by 14-3-3ζ titration assays in the presence of a constant concentration of compound (250 μM) and Tau pS2 peptide (10 nM) (Fig. 3c, ESI ^† Fig. S6).
This statement is strengthened by the diminished stabilizing activity when shifting the more polar chloro substituent from the para (14) to the ortho (5) to the meta position (8), respectively. […]
chromatography (HisTrap high performance cartridges, Cytiva). Typically two 5 mL columns were used for a 2 L culture in which the lysate was loaded on the column, washed with 10 CV wash buffer (50 mM Hepes, pH 8.0, 300 mM NaCl, 25 mM imidazole, 2 mM βME), and eluted with several fractions (2-4 CV) of elution buffer (50 mM Hepes, pH 8.0, 300 mM NaCl, 250 mM imidazole, 2 mM βME). Fractions containing the 14-3-3 protein were combined and dialyzed into 25 mM HEPES pH 8.0, 200 mM NaCl, 10 mM MgCl2, 2 mM βME, followed by dialysis into 25 mM HEPES, 100 mM NaCl, 10 mM MgCl2, 500 μM TCEP (adjusted to pH 8.0). Dialyzed protein was concentrated to ∼40 mg/mL, analyzed by Q -Tof LC/MS, and aliquots were flash -frozen for storage at −80 °C. For 14 -3-3σ∆c, 1 mg TEV per 100 mg purified protein was added to the dialysis to remove the purification tag. The cleaved sample was then again loaded on a 10 mL Ni-NTA column to separate the cleaved product from the expression tag and residual uncleaved protein. The flowthrough was loade d on a Superdex 75 pg 16/60 size exclusion column (GE Life Sciences) using 25 mM HEPES, 100 mM NaCl, 10 mM MgCl2, 500 μM TCEP (adjusted to pH = 8.0) as running buffer. Fractions containing the 14 -3-3 protein were pooled and concentrated to ∼60 mg/mL, analyzed Q -Tof LC/MS, and aliquots were flash -frozen for storage at −80°C.
Fluorescence Anisotropy – compound titration
Compound titration assays were performed by titrating compounds (in 1% DMSO, starting at 500 μM) in a 2-fold dilution series to preformed complex of fluorescein -labeled Tau pS2 (10 nM) and 14 -3-3ζ (100 nM) (which represents approximately 20% bound Tau pS2 peptide to 14 -3-3ζ to allow further complex formation by addition of fragments 1) in FA buffer (10 mM HEPES pH 7.4, 150 mM NaCl, 50 µM TCEP, 0.1% (v/v) Tween20, 0.1% (w/v) BSA). Dilution series were made in polystyrene low -volume 384 -well plates (Corning #4514, Black Round Bottom). Measurements were performed directly after plate preparation, using a Tecan SPARK plate reader at room temperature ( λex: 485±20 nm; λem: 535±25 nm; mirror: automatic; flashes: 30; settle time: 1 ms; gain: optimal; Z -position: calculated from well). Wells containing only fluorescein labelled peptide were used to set as G -factor calibrated from these wells. All data were analyzed using GraphPad Prism (10.0.1) and fitted with a four -parameter logistic model (4PL) to determine binding affinities (dissociation constant, KD). All data shown is background corrected for the signal without 14 -3-3ζ and the mean and standard deviation of technical duplicate is plotted, assay performed in a scientific duplicate for hit compounds.
Fluorescence Anisotropy – 14-3-3 titrations in the presence of compound To characterize the affinity of the Tau peptides for 14-3-3 in the presence of compound, 14-3-3ζ or γ was titrated in a 2-fold dilution series starting at 400 (for the 14-3-3ζ titrations to Tau pS2) or 800 (for the 14-3-3γ titrations to Tau pS214 or pS324) µM. 14-3-3 was added to 10 nM of fluorescein-labeled peptide (Tau pS2, Tau pS214 or Tau pS324) in the presence of 250 µM compound (1% DMSO). The assays were performed in a similar way as described above. Data shown is the average and standard deviation of a technical duplicate, top plateau corrected where needed, assay performed in a scientific duplicate.
Fluorescence Anisotropy – peptide screen […]

CCc1ccc(-c2nccn2-c2ccc(C=O)c(Br)c2)cc1 [Compound 18] was tested, and the “selectivity against panel of 13 14-3-3 client peptides (in words)” value was “selective for the 14-3-3ζ/Tau pS2 peptide complex”.
